Assay results: ChEMBL document CHEMBL1201862, “PubChem BioAssay data set” (2004)
Blank lines part the entries; values can stand above or below the molecule they belong to. Active and inactive are the calls of the source.

How the values were obtained:
[1] = molecular target: NAD-dependent protein deacylase sirtuin-5, mitochondrial (Homo sapiens, UniProt Q9NXA8); experiment: sirtuin-5 deacylation blockers, concentration series – biochemical, fluorescence imaging, cherry-pick, set 5, dose response (AID 720591);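 also: desuccinylation of succinyl peptide AMC substrate read as fluorescence after trypsin release; potency of inhibitors that lower fluorescence and may act on trypsin instead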
[2] = molecular target: Disintegrin and metalloproteinase domain-containing protein 17 (Homo sapiens, UniProt P78536); experiment: inhibition of ADAM17 substrate cleavage – biochemical, quenched FRET substrate, counter-screen for ADAM10 exosite inhibitor project, dose response (AID 743253)
[3] = molecular target: T1, Heat shock factor protein 1 (Mus musculus, UniProt P38532); experiment: enhancement of HSF1-driven luciferase signal – cell-based, NIH3T3, luminescence, dose retest, confirmation (AID 435004); assay type: functional;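 also: stress induced by proteasome inhibitor MG132 added 30 min after compound; luciferase reporter driven by HSF1 response element in NIH3T3 cells; actives raise luminescence as potentiators of the MG132 stress response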
T1 sequence (P38532 whole entry): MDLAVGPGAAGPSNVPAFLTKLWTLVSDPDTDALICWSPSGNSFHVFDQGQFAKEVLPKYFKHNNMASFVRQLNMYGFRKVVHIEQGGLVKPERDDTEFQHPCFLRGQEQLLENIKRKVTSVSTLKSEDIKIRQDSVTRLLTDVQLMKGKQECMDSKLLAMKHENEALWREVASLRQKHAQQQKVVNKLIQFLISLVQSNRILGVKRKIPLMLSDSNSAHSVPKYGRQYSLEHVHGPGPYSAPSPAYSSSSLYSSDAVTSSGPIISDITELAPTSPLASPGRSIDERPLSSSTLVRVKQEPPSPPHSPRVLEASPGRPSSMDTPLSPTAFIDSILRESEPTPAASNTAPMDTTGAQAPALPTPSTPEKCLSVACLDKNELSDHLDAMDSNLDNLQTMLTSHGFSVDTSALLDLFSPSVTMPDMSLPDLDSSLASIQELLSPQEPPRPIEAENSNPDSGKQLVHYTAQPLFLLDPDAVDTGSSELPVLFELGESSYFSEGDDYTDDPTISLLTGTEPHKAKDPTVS

[4] = molecular target: T2, Oxysterols receptor LXR-beta (Homo sapiens, UniProt P55055); assay type: functional, cell-based;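 also: agonist activity at LXR measured by a cell-based luminescence readout across a dose range, run as a counterscreen for daf-12 agonists; HEK293 cells with Gal4-LXR fusion and GAL4-driven luciferase reporter; potency for activation of Gal4-LXR reporter so compounds are agonists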
T2 sequence (P55055 whole entry): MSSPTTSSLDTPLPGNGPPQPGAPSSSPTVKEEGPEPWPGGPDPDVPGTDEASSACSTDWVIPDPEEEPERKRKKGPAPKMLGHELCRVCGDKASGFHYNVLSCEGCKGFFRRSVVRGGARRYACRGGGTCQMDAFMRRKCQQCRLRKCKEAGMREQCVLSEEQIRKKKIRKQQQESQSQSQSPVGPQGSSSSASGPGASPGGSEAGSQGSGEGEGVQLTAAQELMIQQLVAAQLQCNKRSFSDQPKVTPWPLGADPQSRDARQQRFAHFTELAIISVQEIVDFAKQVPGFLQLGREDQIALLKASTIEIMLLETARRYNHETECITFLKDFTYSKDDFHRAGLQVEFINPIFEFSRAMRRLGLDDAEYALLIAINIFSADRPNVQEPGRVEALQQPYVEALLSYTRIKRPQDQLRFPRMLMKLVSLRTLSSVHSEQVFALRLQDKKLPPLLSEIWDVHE

[5] = molecular target: T3, Rac GTPase-activating protein 1 (Homo sapiens, UniProt Q9H0H5); experiment: blockers of MgcRacGAP-driven Rac1 GTP hydrolysis – biochemical, ADP Hunter fluorescence, primary and confirmatory, confirmation (AID 624330); assay type: functional
T3 sequence (Q9H0H5 whole entry): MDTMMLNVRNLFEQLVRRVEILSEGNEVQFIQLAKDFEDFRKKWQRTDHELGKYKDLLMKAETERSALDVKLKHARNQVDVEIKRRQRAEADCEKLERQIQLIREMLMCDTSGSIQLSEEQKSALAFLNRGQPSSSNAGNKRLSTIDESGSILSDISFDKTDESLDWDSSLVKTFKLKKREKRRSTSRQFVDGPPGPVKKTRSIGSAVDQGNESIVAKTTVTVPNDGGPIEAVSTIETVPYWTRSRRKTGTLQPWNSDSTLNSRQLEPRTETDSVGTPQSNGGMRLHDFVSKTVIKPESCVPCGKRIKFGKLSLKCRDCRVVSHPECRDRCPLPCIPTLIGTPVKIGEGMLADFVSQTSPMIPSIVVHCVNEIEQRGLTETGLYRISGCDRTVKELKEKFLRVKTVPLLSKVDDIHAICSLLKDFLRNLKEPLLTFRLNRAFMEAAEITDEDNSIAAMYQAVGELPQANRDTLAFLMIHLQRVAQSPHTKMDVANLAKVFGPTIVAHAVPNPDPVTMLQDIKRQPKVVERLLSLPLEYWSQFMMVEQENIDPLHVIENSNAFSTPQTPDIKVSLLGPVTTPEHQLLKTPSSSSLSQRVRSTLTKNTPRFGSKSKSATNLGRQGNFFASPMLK

[6] = potency of ADAM10 substrate cleavage blockers – biochemical, QFRET, dose response (AID 743254);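 also: ADAM10 enzyme with the DM2 quenched FRET peptide as substrate; EDANS fluorescence gain as the protease cuts the substrate; inhibitor potency against ADAM10 proteolytic activity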
[7] = molecular target: Paired box protein Pax-8 (Homo sapiens, UniProt Q06710); experiment: PAX8 transcriptional activity inhibition in RMG-I – RMG-I cells, luciferase, cherry-pick, dose response (AID 687027); assay type: functional, cell-based;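 also: luciferase reporter driven by Pax8 target thyroperoxidase promoter measured by SteadyGlo luminescence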
[8] = inhibitors acting on PAX2 in cells – cell-based, plate reader, dry powder samples, selectivity assay for PAX8 inhibitor project, dose response (AID 743048); assay type: functional;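 also: HEK293 cells carrying a WT1 promoter luciferase reporter driven by expressed Pax2; potency is for inhibition of Pax2 driven reporter signal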
[9] = COV362 cell viability loss – plate reader, dry powder, SA12, cytotoxicity control for PAX8 inhibitor project, dose response (AID 743144); assay type: functional, cell-based
[10] = toxicity toward immortalized ovarian surface epithelium – cell-based, plate reader, dry powder samples, cytotoxicity control for PAX8 inhibitor project, dose response (AID 743045); assay type: functional
[11] = OVCAR-3 cell viability loss – plate reader, dry powder samples, PAX8 inhibitor project, dose response (AID 743044); assay type: functional, cell-based
[12] = PAX5 cellular inhibition readout – cell-based, plate reader, dry powder samples, selectivity assay for PAX8 inhibitor project, dose response (AID 743047); assay type: functional;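 also: HEK293 cells carrying a Pax5 driven CD19 promoter luciferase reporter; potency of inhibitors that lower reporter luminescence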
[13] = IGROV1 cell killing – plate reader, dry powder samples, PAX8 inhibitor project, dose response (AID 743043); assay type: functional, cell-based; conditions: IGROV-1
[14] = OVCAR4 cell viability loss – plate reader, dry powder, SA11, cytotoxicity control for PAX8 inhibitor project, dose response (AID 743150); assay type: functional, cell-based; conditions: OVCAR-4
[15] = COV434 cell viability loss – plate reader, dry powder, SA7, cytotoxicity control for PAX8 inhibitor project, dose response (AID 743145); assay type: functional, cell-based
[16] = OV-90 cell viability loss – plate reader, dry powder, SA8, PAX8 inhibitor project, dose response (AID 743149); assay type: functional, cell-based
[17] = OVCAR8 cell viability loss – plate reader, dry powder samples, PAX8 project, dose response (AID 743197); assay type: functional, cell-based; conditions: OVCAR-8
[18] = PAX8-dependent cell viability loss – plate reader, dry powder, dose response (AID 743049); assay type: functional, cell-based
[19] = growth inhibition of yeast DHODH-expressing 3D7 parasites – SYBR Green, dry powder samples, dose response (AID 1159570); assay type: functional, cell-based;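 also: parasite growth measured after 72 hours of compound exposure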
[20] = toxicity to human HepG2 hepatoma cells – cell-based, plate reader, dry powder samples, cytotoxicity control, dose response (AID 1159569); assay type: functional;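 also: inhibitor potency with signal falling toward the positive control level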
[21] = P. falciparum Dd2 growth inhibitors, dose response, SYBR Green, cherry-picked samples (AID 1159567); assay type: functional, cell-based
[22] = Dd2 malaria parasite growth inhibition potency – SYBR Green, dry powder samples, dose response (AID 1159566); assay type: functional, cell-based;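 also: potency for growth inhibition with lower SYBR green DNA signal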
[23] = toxicity to human hepatoma HepG2 cells – cell-based, cherry-picked samples, cytotoxicity control, dose response (AID 1159577); assay type: functional
[24] = growth inhibition of PfATP4-mutant resistant parasites – NITD609-resistant line, SYBR Green, dry powder, dose response (AID 1159571); assay type: functional, cell-based;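 also: parasites synchronized at ring stage by sorbitol before testing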
[25] = molecular target: Potassium channel subfamily K member 9 (Homo sapiens, UniProt Q9NPC2); experiment: KCNK9 flux blockade, concentration-response – cell-based, FluxOR thallium flux, selectivity assay for TASK1 inhibitor project, SAR follow-up (AID 652211); assay type: functional;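 also: potency is for inhibitors of the channel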
[26] = molecular target: Potassium channel subfamily K member 3 (Homo sapiens, UniProt O14649); experiment: inhibition of human KCNK3 channel flux – CHO cells, FluxOR thallium flux, SAR follow-up (AID 652212); assay type: functional
Chain of Potassium channel subfamily K member 3 (O14649 whole entry): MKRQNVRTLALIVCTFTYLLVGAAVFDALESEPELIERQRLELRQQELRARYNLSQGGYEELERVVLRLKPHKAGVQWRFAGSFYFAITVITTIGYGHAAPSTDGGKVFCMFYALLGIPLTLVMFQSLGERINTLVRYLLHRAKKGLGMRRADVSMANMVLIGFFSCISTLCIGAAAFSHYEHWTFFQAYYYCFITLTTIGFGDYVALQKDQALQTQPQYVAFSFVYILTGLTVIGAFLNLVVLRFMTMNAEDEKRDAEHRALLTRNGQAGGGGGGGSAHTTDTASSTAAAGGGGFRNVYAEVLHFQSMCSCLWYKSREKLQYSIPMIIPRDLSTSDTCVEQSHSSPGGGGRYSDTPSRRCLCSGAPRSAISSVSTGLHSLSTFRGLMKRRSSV

Chain of NAD-dependent protein deacylase sirtuin-5, mitochondrial (Q9NXA8 whole entry, the tested form may be a part): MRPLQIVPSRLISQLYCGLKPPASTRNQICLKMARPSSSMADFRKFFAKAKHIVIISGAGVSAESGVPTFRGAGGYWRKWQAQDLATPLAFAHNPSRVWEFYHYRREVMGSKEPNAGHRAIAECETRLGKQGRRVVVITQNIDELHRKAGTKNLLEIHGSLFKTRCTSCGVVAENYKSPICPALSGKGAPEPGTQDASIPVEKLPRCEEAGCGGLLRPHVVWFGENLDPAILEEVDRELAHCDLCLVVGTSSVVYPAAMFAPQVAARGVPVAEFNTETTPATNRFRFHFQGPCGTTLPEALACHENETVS
Chain of Disintegrin and metalloproteinase domain-containing protein 17 (P78536 whole entry, the tested form may be a part): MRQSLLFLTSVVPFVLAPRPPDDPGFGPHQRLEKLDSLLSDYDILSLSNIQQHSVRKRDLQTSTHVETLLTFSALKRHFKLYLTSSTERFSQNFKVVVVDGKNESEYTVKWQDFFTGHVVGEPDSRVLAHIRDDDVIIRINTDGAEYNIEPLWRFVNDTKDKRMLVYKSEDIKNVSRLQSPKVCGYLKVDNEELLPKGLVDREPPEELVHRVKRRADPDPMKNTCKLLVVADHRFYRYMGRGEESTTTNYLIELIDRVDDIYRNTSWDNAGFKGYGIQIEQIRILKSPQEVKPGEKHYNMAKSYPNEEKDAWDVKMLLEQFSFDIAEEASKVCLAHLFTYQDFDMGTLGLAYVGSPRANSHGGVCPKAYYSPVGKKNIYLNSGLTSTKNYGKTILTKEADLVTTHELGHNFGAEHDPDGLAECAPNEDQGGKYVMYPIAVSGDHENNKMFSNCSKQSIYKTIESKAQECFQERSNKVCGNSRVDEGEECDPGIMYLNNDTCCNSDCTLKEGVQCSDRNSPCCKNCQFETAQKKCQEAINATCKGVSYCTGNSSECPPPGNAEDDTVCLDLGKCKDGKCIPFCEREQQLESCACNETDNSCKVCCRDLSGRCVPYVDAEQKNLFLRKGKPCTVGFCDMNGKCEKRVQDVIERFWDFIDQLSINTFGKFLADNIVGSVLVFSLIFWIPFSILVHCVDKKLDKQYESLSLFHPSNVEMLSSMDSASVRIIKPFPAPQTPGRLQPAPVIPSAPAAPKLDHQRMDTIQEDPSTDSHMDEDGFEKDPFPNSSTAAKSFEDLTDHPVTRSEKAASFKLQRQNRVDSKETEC
Chain of Paired box protein Pax-8 (Q06710 whole entry): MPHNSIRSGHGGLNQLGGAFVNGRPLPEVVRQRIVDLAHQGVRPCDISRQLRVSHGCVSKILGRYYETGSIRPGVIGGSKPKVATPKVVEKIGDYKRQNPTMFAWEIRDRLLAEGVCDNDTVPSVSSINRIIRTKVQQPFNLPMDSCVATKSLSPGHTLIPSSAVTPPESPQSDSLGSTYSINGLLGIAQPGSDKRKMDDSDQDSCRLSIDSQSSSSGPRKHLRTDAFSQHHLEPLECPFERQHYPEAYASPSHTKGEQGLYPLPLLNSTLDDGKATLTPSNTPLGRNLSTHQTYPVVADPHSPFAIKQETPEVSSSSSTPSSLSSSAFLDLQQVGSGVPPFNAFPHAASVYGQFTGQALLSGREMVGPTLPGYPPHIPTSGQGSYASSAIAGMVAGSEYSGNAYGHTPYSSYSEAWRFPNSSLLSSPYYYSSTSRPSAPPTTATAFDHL
Chain of Potassium channel subfamily K member 9 (Q9NPC2 whole entry): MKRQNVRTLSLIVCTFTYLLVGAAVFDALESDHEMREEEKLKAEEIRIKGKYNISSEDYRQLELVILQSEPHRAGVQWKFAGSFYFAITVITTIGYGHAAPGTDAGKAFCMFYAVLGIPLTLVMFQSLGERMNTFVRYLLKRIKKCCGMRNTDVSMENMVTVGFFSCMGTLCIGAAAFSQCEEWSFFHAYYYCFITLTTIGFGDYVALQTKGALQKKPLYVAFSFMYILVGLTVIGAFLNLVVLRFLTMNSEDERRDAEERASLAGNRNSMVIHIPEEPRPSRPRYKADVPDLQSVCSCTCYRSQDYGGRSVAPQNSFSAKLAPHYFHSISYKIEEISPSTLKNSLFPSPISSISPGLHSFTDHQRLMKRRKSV

AC50 [1]: > 30 µM (inactive)
Compound: CCc1ccccc1-n1c(SCC(=O)NC)nnc1-c1ccco1

IC50 [2]: > 69.5 µM (inactive)
Compound: CCc1ccc(-c2cn(C3CCCCC3)c(=S)[nH]2)cc1

EC50 [3]: 0.83 µM (active)
EC50 [4]: > 67.6 µM (inactive)
Compound: Cc1cc(NC(=O)CSc2nc3c(cc2C#N)CCC3)no1

IC50 [5]: 8.46 µM (active)
EC50 [4]: > 67.4 µM (inactive)
Compound: Nc1ccc2c(c1)Cc1cc(N)c(Cl)cc1-2

IC50 [6]: 11.3 µM (inactive)
IC50 [2]: > 69.6 µM (inactive)
Compound: CC1(Cc2ccc(C(F)(F)F)o2)C(=O)Nc2ccc(-c3cccc(C(F)(F)F)c3)cc21 (centres undefined)

AC50 [1]: > 30 µM (inactive)
Compound: CC(C)(C)c1ccc(S(=O)(=O)NC(=O)C2(C)CCN2C(=O)C2CCCCC2)cc1 (centres undefined)

Compound: COc1ccccc1C#Cc1ccc([C@H]2[C@@H](CO)N(C(=O)C3CCCCC3)[C@H]2C#N)cc1
AC50 [7]: 3.4 µM (active)
AC50 [8]: 9.82 µM (active)
AC50 [9]: 36.4 µM (active)
AC50 [10]: 42.5 µM (active)
AC50 [11]: 18.9 µM (active)
AC50 [12]: 6.15 µM (active)
AC50 [13]: 44.8 µM (active)
AC50 [14]: 63.6 µM (active)
AC50 [15]: 20.6 µM (active)
AC50 [16]: 28.6 µM (active)
AC50 [17]: 60.8 µM (active)
AC50 [18]: 12.2 µM (active)
AC50 [19]: 1.19 µM (active)
AC50 [20]: 35.2 µM (active)
AC50 [21]: 1.36 µM (active)
AC50 [22]: 0.684 µM (active)
AC50 [23]: > 39 µM (inactive)
AC50 [24]: 1.53 µM (active)

IC50 [25]: 30.5 µM (active)
IC50 [26]: 1.32 µM (active)
Compound: CCOc1ccccc1NC(=O)c1cccc(NC(=O)C(C)(C)C)c1
